According to ChEMBL document CHEMBL2150924, “Inhibition of NaV1.6 sodium channel currents by a novel series of 1,4-disubstituted-triazole derivatives obtained via copper-catalyzed click chemistry” (Bioorg Med Chem Lett, 2012):

How the values were obtained:
[1] = target: Sodium channel protein type 8 subunit alpha (Rattus norvegicus, UniProt O88420); test: Inhibition of rat NaV1.6-mediated current expressed in human HEK293 cells by patch clamp assay; format: cell-based
[2] = target: Sodium channel protein type 8 subunit alpha (Rattus norvegicus) (UniProt O88420); test: Inhibition of rat NaV1.6-mediated current expressed in human HEK293 cells at 10 uM by patch clamp assay; format: cell-based
Sodium channel protein type 8 subunit alpha (Rattus norvegicus), sequence (O88420 whole entry): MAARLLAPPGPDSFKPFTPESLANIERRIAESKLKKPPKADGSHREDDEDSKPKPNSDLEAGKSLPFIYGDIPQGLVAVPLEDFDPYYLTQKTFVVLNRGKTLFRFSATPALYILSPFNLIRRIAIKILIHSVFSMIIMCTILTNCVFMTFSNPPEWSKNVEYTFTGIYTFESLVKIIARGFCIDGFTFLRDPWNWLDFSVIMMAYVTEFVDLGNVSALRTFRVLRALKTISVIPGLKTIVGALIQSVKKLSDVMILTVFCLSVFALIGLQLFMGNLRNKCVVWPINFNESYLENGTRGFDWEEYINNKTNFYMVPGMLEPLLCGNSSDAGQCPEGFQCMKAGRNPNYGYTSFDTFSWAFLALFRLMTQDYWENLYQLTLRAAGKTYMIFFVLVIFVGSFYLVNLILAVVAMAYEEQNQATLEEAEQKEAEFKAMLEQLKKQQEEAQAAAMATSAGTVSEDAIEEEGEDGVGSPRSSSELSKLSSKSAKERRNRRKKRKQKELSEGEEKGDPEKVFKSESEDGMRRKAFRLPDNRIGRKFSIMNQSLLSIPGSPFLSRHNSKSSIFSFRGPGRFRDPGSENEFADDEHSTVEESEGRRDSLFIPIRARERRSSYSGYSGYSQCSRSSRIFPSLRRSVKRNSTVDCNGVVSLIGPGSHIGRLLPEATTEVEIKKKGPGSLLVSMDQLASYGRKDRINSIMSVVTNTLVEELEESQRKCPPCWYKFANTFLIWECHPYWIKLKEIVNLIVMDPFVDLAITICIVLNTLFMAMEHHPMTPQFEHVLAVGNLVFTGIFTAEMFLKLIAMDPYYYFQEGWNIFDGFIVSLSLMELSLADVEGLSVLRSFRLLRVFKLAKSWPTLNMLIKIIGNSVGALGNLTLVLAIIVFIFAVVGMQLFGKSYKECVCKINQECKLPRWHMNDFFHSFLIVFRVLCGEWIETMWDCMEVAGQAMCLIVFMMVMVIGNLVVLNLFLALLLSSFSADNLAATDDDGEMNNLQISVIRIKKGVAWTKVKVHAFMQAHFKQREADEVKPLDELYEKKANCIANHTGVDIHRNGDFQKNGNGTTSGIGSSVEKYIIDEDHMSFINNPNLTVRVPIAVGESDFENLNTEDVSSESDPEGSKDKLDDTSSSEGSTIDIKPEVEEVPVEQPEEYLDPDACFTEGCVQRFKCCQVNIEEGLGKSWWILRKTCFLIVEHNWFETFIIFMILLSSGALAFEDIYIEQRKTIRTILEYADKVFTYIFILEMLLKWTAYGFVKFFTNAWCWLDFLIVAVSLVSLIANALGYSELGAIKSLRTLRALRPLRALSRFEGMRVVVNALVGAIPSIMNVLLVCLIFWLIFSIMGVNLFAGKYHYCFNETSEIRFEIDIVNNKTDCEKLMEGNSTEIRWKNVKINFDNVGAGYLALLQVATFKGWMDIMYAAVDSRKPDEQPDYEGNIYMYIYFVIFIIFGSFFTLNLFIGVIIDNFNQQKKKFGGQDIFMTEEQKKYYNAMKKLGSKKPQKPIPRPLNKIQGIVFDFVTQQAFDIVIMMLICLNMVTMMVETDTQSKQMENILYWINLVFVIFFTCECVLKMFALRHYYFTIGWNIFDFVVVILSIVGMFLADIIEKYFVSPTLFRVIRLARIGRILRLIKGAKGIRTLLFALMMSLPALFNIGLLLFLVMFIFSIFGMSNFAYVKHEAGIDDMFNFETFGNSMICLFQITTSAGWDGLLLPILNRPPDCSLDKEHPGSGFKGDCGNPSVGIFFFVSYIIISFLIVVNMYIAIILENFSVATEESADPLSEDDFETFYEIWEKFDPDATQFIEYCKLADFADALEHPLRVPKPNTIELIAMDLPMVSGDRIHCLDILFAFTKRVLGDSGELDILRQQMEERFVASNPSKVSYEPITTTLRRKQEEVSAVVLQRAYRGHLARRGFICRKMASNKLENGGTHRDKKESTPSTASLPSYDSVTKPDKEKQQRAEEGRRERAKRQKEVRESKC

Sodium channel protein type 8 subunit alpha, sequence (O88420 whole entry): as above

Compound | IC50 [1] [µM] | inhibition [2] [%]
COc1ccc(-c2nc(-c3ccccc3)c[nH]2)cc1 | 19.6 | 21.7
c1ccc(CCn2cc(COc3ccccc3)nn2)cc1 | – | 8.9
c1ccc(Cn2cc(CCCOc3ccccc3)nn2)cc1 | 31.7 | 26
O=C(Cn1cc(-c2ccccc2)nn1)c1ccccc1 | – | 3.9
c1ccc(OCc2cn(-c3ccccc3)nn2)cc1 | 28.5 | 16
c1ccc(Cn2cc(-c3ccccc3)nn2)cc1 | 125 | 10
c1ccc(CCn2cc(-c3ccccc3)nn2)cc1 | – | 11.5
c1ccc(CCn2cc(CCCOc3ccccc3)nn2)cc1 | 52 | 22.7
O=C(Cn1cc(COc2ccccc2)nn1)c1ccccc1 | – | 13.6
c1ccc(OCCCc2cn(-c3ccccc3)nn2)cc1 | – | 5.9
c1ccc(-c2cn(-c3ccccc3)nn2)cc1 | – | 6.2
c1ccc(-c2c[nH]c(-c3ccccc3)n2)cc1 | – | 16
c1ccc(Cn2cc(COc3ccccc3)nn2)cc1 | – | 11
O=C(Cn1cc(CCCOc2ccccc2)nn1)c1ccccc1 | 53.6 | 22.7
